Reference: PubChem BioAssay AID2060910 (Molecular Pharmacology Branch, DTP, NCI, 2025)
Values belong to the compound of their own block, whether it stands above or below them.

System: 242566-281-R-J2-PDC complex spheroid viability
Experiment: Anticancer human tumor 242566-281-R-J2-PDC patient-derived pancreatic carcinoma cell line growth inhibition [RAS]
Settings: for IC50: curve of first compound; for viability, T/C: stronger effect = lower value
Procedure, shortened: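 Multi-cell-type spheroids: tumor cells plus HUVEC endothelial cells and mesenchymal stem cells. RAS-pathway inhibitors were combined with targeted agents, each dosed in half-log steps down from clinical Cmax, or from 10 microM when Cmax was unknown.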

[1] = second compound 0.000949 µM, first compound 0.0316 µM
[2] = second compound 0.000949 µM, first compound 0.1 µM
[3] = second compound 0.000949 µM, first compound 0.316 µM
[4] = second compound 0.000949 µM, first compound 1 µM
[5] = second compound 0.000949 µM, first compound 3.16 µM
[6] = second compound 0.000949 µM, first compound 10 µM
[7] = second compound 0.003 µM, first compound 0.0316 µM
[8] = second compound 0.003 µM, first compound 0.1 µM
[9] = second compound 0.003 µM, first compound 0.316 µM
[10] = second compound 0.003 µM, first compound 1 µM
[11] = second compound 0.003 µM, first compound 3.16 µM
[12] = second compound 0.003 µM, first compound 10 µM
[13] = second compound 0.00949 µM, first compound 0.0316 µM
[14] = second compound 0.00949 µM, first compound 0.1 µM
[15] = second compound 0.00949 µM, first compound 0.316 µM
[16] = second compound 0.00949 µM, first compound 1 µM
[17] = second compound 0.00949 µM, first compound 3.16 µM
[18] = second compound 0.00949 µM, first compound 10 µM
[19] = second compound 0.03 µM, first compound 0.0316 µM
[20] = second compound 0.03 µM, first compound 0.1 µM
[21] = second compound 0.03 µM, first compound 0.316 µM
[22] = second compound 0.03 µM, first compound 1 µM
[23] = second compound 0.03 µM, first compound 3.16 µM
[24] = second compound 0.03 µM, first compound 10 µM
[25] = second compound 0.0949 µM, first compound 0.0316 µM
[26] = second compound 0.0949 µM, first compound 0.1 µM
[27] = second compound 0.0949 µM, first compound 0.316 µM
[28] = second compound 0.0949 µM, first compound 1 µM
[29] = second compound 0.0949 µM, first compound 3.16 µM
[30] = second compound 0.0949 µM, first compound 10 µM
[31] = second compound 0.3 µM, first compound 0.0316 µM
[32] = second compound 0.3 µM, first compound 0.1 µM
[33] = second compound 0.3 µM, first compound 0.316 µM
[34] = second compound 0.3 µM, first compound 1 µM
[35] = second compound 0.3 µM, first compound 3.16 µM
[36] = second compound 0.3 µM, first compound 10 µM
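Note: spheroids exposed to compound for 7 days before readout.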
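Throughout, for viability, T/C: 100% = DMSO vehicle control wells.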

- IC50 (second compound 0.00316 µM): > 10 µM
- IC50 (second compound 0.01 µM): > 10 µM
- IC50 (second compound 0.0316 µM): > 10 µM
- IC50 (second compound 0.1 µM): > 10 µM
- IC50 (second compound 0.316 µM): > 10 µM
- IC50 (second compound 1 µM): > 10 µM
Compound: NC1c2ccccc2OC12CCN(c1cnc3c(N4CCCc5ncccc54)n[nH]c3n1)CC2 (stereo unspecified) + C=CC(=O)N1CCN(c2nc(OCC3CCCN3C)nc3c(F)c(-c4nc(N)cc(C)c4C(F)(F)F)c(Cl)cc23)C(C)C1
- viability, T/C (second compound 0.00316 µM, first compound 0.0316 µM): 104%
- viability, T/C (second compound 0.00316 µM, first compound 0.1 µM): 128%
- viability, T/C (second compound 0.00316 µM, first compound 0.316 µM): 83.3%
- viability, T/C (second compound 0.00316 µM, first compound 1 µM): 82.7%
- viability, T/C (second compound 0.00316 µM, first compound 3.16 µM): 79.5%
- viability, T/C (second compound 0.00316 µM, first compound 10 µM): 61.7%
- viability, T/C (second compound 0.01 µM, first compound 0.0316 µM): 99%
- viability, T/C (second compound 0.01 µM, first compound 0.1 µM): 122%
- viability, T/C (second compound 0.01 µM, first compound 0.316 µM): 107%
- viability, T/C (second compound 0.01 µM, first compound 1 µM): 72.2%
- viability, T/C (second compound 0.01 µM, first compound 3.16 µM): 98.7%
- viability, T/C (second compound 0.01 µM, first compound 10 µM): 62.6%
- viability, T/C (second compound 0.0316 µM, first compound 0.0316 µM): 120%
- viability, T/C (second compound 0.0316 µM, first compound 0.1 µM): 126%
- viability, T/C (second compound 0.0316 µM, first compound 0.316 µM): 86.9%
- viability, T/C (second compound 0.0316 µM, first compound 1 µM): 89.3%
- viability, T/C (second compound 0.0316 µM, first compound 3.16 µM): 77.1%
- viability, T/C (second compound 0.0316 µM, first compound 10 µM): 56.2%
- viability, T/C (second compound 0.1 µM, first compound 0.0316 µM): 124%
- viability, T/C (second compound 0.1 µM, first compound 0.1 µM): 129%
- viability, T/C (second compound 0.1 µM, first compound 0.316 µM): 98.8%
- viability, T/C (second compound 0.1 µM, first compound 1 µM): 67.5%
- viability, T/C (second compound 0.1 µM, first compound 3.16 µM): 73.3%
- viability, T/C (second compound 0.1 µM, first compound 10 µM): 54.7%
- viability, T/C (second compound 0.316 µM, first compound 0.0316 µM): 124%
- viability, T/C (second compound 0.316 µM, first compound 0.1 µM): 138%
- viability, T/C (second compound 0.316 µM, first compound 0.316 µM): 87%
- viability, T/C (second compound 0.316 µM, first compound 1 µM): 84.4%
- viability, T/C (second compound 0.316 µM, first compound 3.16 µM): 76.2%
- viability, T/C (second compound 0.316 µM, first compound 10 µM): 56.8%
- viability, T/C (second compound 1 µM, first compound 0.0316 µM): 122%
- viability, T/C (second compound 1 µM, first compound 0.1 µM): 119%
- viability, T/C (second compound 1 µM, first compound 0.316 µM): 76.1%
- viability, T/C (second compound 1 µM, first compound 1 µM): 87.4%
- viability, T/C (second compound 1 µM, first compound 3.16 µM): 91%
- viability, T/C (second compound 1 µM, first compound 10 µM): 60.4%

- IC50 (second compound 0.000949 µM): 2.76 µM
- IC50 (second compound 0.003 µM): 2.75 µM
- IC50 (second compound 0.00949 µM): 2.18 µM
- IC50 (second compound 0.03 µM): 1.87 µM
- IC50 (second compound 0.0949 µM): 1.67 µM
- IC50 (second compound 0.3 µM): 1.5 µM
Compound: CCC(CC)c1cc(NC2CCC(N)C2)n2nccc2n1 (stereo unspecified) + CCn1c(-c2cccnc2C(C)OC)c2c3cc(ccc31)N1CCOC(CC(NC(=O)C(C(C)C)N(C)C(=O)C3(F)CCN(C(=O)C#CC(C)(C)N(C)C)CC3)C(=O)N3CCCC(N3)C(=O)OCC(C)(C)C2)C1
- viability, T/C [1]: 89.3%
- viability, T/C [2]: 91.4%
- viability, T/C [3]: 91.1%
- viability, T/C [4]: 97.8%
- viability, T/C [5]: 44.2%
- viability, T/C [6]: 1.81%
- viability, T/C [7]: 97.9%
- viability, T/C [8]: 112%
- viability, T/C [9]: 102%
- viability, T/C [10]: 105%
- viability, T/C [11]: 42.4%
- viability, T/C [12]: 1.8%
- viability, T/C [13]: 107%
- viability, T/C [14]: 77.5%
- viability, T/C [15]: 86.7%
- viability, T/C [16]: 87.6%
- viability, T/C [17]: 32%
- viability, T/C [18]: 2.19%
- viability, T/C [19]: 93.3%
- viability, T/C [20]: 86.3%
- viability, T/C [21]: 89.9%
- viability, T/C [22]: 84.3%
- viability, T/C [23]: 21.4%
- viability, T/C [24]: 2.92%
- viability, T/C [25]: 106%
- viability, T/C [26]: 96.6%
- viability, T/C [27]: 90%
- viability, T/C [28]: 80.5%
- viability, T/C [29]: 12.4%
- viability, T/C [30]: 3.14%
- viability, T/C [31]: 82.4%
- viability, T/C [32]: 89.8%
- viability, T/C [33]: 84.7%
- viability, T/C [34]: 69.2%
- viability, T/C [35]: 15.2%
- viability, T/C [36]: 2.62%

- IC50 (second compound 0.000949 µM): > 10 µM
- IC50 (second compound 0.003 µM): > 10 µM
- IC50 (second compound 0.00949 µM): > 10 µM
- IC50 (second compound 0.03 µM): > 10 µM
- IC50 (second compound 0.0949 µM): > 10 µM
- IC50 (second compound 0.3 µM): > 10 µM
Compound: Cc1nc(N2CCC3(CC2)COC(C)C3N)c(CO)nc1Sc1ccnc(N)c1Cl (stereo unspecified) + CCn1c(-c2cccnc2C(C)OC)c2c3cc(ccc31)N1CCOC(CC(NC(=O)C(C(C)C)N(C)C(=O)C3(F)CCN(C(=O)C#CC(C)(C)N(C)C)CC3)C(=O)N3CCCC(N3)C(=O)OCC(C)(C)C2)C1
- viability, T/C [1]: 94.9%
- viability, T/C [2]: 93.2%
- viability, T/C [3]: 63.1%
- viability, T/C [4]: 77.4%
- viability, T/C [5]: 71.5%
- viability, T/C [6]: 53.4%
- viability, T/C [7]: 102%
- viability, T/C [8]: 80%
- viability, T/C [9]: 80%
- viability, T/C [10]: 81.5%
- viability, T/C [11]: 74%
- viability, T/C [12]: 52.8%
- viability, T/C [13]: 98.8%
- viability, T/C [14]: 73.4%
- viability, T/C [15]: 67.3%
- viability, T/C [16]: 71%
- viability, T/C [17]: 67.1%
- viability, T/C [18]: 68.6%
- viability, T/C [19]: 97.6%
- viability, T/C [20]: 85.5%
- viability, T/C [21]: 82%
- viability, T/C [22]: 73.7%
- viability, T/C [23]: 60.7%
- viability, T/C [24]: 61.6%
- viability, T/C [25]: 75.1%
- viability, T/C [26]: 77.3%
- viability, T/C [27]: 79.7%
- viability, T/C [28]: 71.1%
- viability, T/C [29]: 54.3%
- viability, T/C [30]: 61.9%
- viability, T/C [31]: 73.7%
- viability, T/C [32]: 72.8%
- viability, T/C [33]: 61.5%
- viability, T/C [34]: 50.5%
- viability, T/C [35]: 49.9%
- viability, T/C [36]: 51.5%
